Measurements reported in paper PMC5638327, “Comparison of bioavailability and antiplatelet action of ticagrelor in patients with ST-elevation myocardial infarction and non-ST-elevation myocardial infarction: A prospective, observational, single-centre study” (PLoS ONE, 2017).

What was measured:
platelet inhibition = tested on: platelet inhibition; design: method as in earlier work; conditions: 2 hours after ticagrelor LD; ref 18 20 25 (of the protocol); cited from earlier work
[1] = Adverse events during the observation period (12 hours after ticagrelor LD); format: in vivo, human (patients with myocardial infarction)
Text: Between November 2015 and January 2017, a total of 73 consecutive AMI patients (49 STEMI and 24 NSTEMI) were enrolled. The recruitment continued until the minimum required number of patients were enrolled in the less numerous group (NSTEMI). There were no differences in the baseline characteristics between the two groups, except higher mean left ventricle ejection fraction seen in NSTEMI patients at discharge (Table 1). Of note, as expected numerically greater proportion of STEMI patients were treated with morphine, but this difference was statistically insignificant. Adverse events during the observation period (12 hours after ticagrelor LD) were sporadic and mild (STEMI vs. NSTEMI: Thrombolysis in Myocardial Infarction minimal bleeding 6.1% vs. 8.3%, p = 0.92; dyspnea 2.0% vs. 4.2%, p = 0.83; vomiting 4.1% vs. 4.2%, p = 0.56). […]
Ludwika Rydygiera w Bydgoszczy (study
PLATO trial, deﬁnite or probable stent thrombosis approval reference number: KB 617/2015). […]
Thrombolysis In Myocardial Infarction (TIMI) criteria, still being collected, currently no additional data are available besides given in dyspnoea adverse events according to criteria used in the submitted study protocol. […]
Postepy […]
trial is expected to be the ﬁrst study to elucidateKardiol Interwencyjnej 2015;11:259–80. whether STEMI is associated with poorer absorption and 8. Navarese EP, Buffon A, Kozinski M, et al. A critical overview on ticagrelor in acute coronary syndromes. QJM 2013;106:105–15. subsequently weaker antiplatelet action of ticagrelor in 9. Adamski P, Koziński M, Ostrowska M, et al. Overview of pleiotropic comparison with NSTEMI. effects of platelet P2Y12 receptor inhibitors. Thromb Haemost […]
1Department of Principles of Clinical Medicine, Collegium Medicum, Nicolaus Drug Metab Dispos 2010;38:1514–21.
Copernicus University, Bydgoszcz, Poland 11. Husted S, Emanuelsson H, Heptinstall S, et al. Pharmacodynamics, 2Department of Pharmacology and Therapy, Collegium Medicum, Nicolaus pharmacokinetics, and safety of the oral reversible P2Y12 antagonist AZD6140 with aspirin in patients with atherosclerosis: a double-blind
Copernicus University, Bydgoszcz, Poland comparison to clopidogrel with aspirin. Eur Heart J 3Department of Cardiology and Internal Medicine, Collegium Medicum, 2006;27:1038–47.
Nicolaus Copernicus University, Bydgoszcz, Poland 12. Varenhorst C, Eriksson N, Johansson Å, et al. Effect of genetic 4Department of Theoretical Foundations of Biomedical Science and Medical variations on ticagrelor plasma levels and clinical outcomes.
Informatics, Collegium Medicum, Nicolaus Copernicus University, Bydgoszcz, Eur Heart J 2015;36:1901–12.
Poland 13. Teng R, Mitchell P, Butler K. Effect of age and gender on 5Department of Laboratory Medicine, Collegium Medicum, Nicolaus pharmacokinetics and pharmacodynamics of a single ticagrelor dose in healthy individuals. Eur J Clin Pharmacol 2012;68:1175–82.
Copernicus University, Bydgoszcz, Poland 14. Teng R, Mitchell PD, Butler K. Lack of significant food effect on the 6Department of Medicinal Chemistry, Collegium Medicum, Nicolaus pharmacokinetics of ticagrelor in healthy volunteers. J Clin Pharm Copernicus University, Bydgoszcz, Poland Ther 2012;37:4648.– […]

[2] = Pharmacokinetic assessment: plasma concentrations by liquid chromatography tandem mass spectrometry after ticagrelor loading dose; format: in vivo, human (patients with myocardial infarction); conditions: both sexes, human, oral, 180 mg, internal pilot study, first 15 patients with NSTEMI, mean and SD, read-out: AUC(0–6)

CCCSc1nc(N[C@@H]2C[C@H]2c2ccc(F)c(F)c2)c2nnn([C@@H]3C[C@H](OCCO)[C@@H](O)[C@H]3O)c2n1 [ticagrelor]
patients with STEMI with inadequate platelet inhibition (platelet inhibition): ≤ 60% | Thrombolysis in Myocardial Infarction minimal bleeding ([1]; NSTEMI patients): 8.3% | dyspnea ([1]; NSTEMI patients): 4.2% | vomiting ([1]; NSTEMI patients): 4.2% | Thrombolysis in Myocardial Infarction minimal bleeding ([1]; STEMI patients): 6.1% | dyspnea ([1]; STEMI patients): 2.0% | vomiting ([1]; STEMI patients): 4.1% | AUC(0-t) [2]: 6410 ± 4080 ng·h/mL
